As a reminder, the inhibition is the relative decrease from the control value, in per cent.

The target in one experiment is T1, 5-HT6 receptor (Homo sapiens, UniProt P50406).
T1 construct: expressed in transfected cells
T1 sequence (P50406 whole entry): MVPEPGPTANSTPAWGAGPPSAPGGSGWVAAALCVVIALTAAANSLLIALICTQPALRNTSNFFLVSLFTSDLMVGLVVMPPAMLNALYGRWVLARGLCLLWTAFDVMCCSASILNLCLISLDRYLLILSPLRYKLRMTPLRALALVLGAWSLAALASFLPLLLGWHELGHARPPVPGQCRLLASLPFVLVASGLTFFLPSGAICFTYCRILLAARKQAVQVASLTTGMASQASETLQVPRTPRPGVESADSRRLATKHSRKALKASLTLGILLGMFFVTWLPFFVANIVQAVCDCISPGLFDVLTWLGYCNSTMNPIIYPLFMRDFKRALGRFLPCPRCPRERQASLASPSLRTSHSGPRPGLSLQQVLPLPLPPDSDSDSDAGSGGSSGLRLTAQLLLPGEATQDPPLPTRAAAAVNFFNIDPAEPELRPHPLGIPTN
As to the kind of experiment: Binding affinity for the 5-HT6 receptor (3H-LSD displacement, membranes of recombinant cells). As to conditions: 100 nM of test compound; 3H-LSD (2 nM); 60 minute incubation at 37° C.; read-out: percent inhibition of binding of the radioligand for the 5-HT6 receptor. How it is done: All of the compounds of the invention were evaluated using cell types receptive specifically to the 5-HT6 receptor (for cloning and characterization of the human 5-HT6 receptor see Kohen, et al. J. Neurochemistry, 66, 1996: 47-56). The assay protocol generally entailed the incubation of membranes prepared from cells expressing the 5-HT6 receptor with ^3H-LSD (2 nM). Increasing levels of the test compound were incubated with the radioligand and the membrane homogenates prepared from the recombinant cells. After a 60 minute incubation at 37° C., the incubation was terminated by vacuum filtration. The filters were washed with buffer and the filters were counted for radioactivity using liquid scintillation spectrometry. The affinity of the test compound for the 5-HT6 receptor was determined by computer-assisted analysis of the data and determining the amount of the compound necessary to inhibit 50% of the binding of the radioligand to the receptor. Concentrations ranging from 10^−11 M to 10^−5 M of the test compound were evaluated. […] Affinity for the 5-HT6 receptor is expressed as the amount (in percent) of binding of the radioligand that is inhibited in the presence of 100 nM of test compound. A greater percent inhibition indicates greater affinity for the 5-HT6 receptor.
For `O=S(=O)(c1cccc2ccccc12)n1cc(C2CCN3CCCC3C2)c2ccncc21` (single isomer, unassigned) [3-(Octahydro-7-indolizinyl)-1-(1-naphthalenesulfonyl)-6-azaindole], the inhibition at 0.1 µM is > 80%. Take `O=S(=O)(c1ccc2ccccc2c1)n1cc(C2CCN3CCCC3C2)c2cccnc21` (single isomer, unassigned) [3-(Octahydro-7-indolizinyl)-1-(2-naphthalenesulfonyl)-7-azaindole]: the inhibition at 0.1 µM was > 80%. `O=C(c1c(Cl)cccc1Cl)n1cc(C2=CCN3CCCC3C2)c2cccnc21` (stereo not shown) [1-(2,6-Dichlorobenzoyl)-3-(1,2,3,5,8,8a-hexahydro-7-indolizinyl)-7-azaindole]: the inhibition at 0.1 µM was > 80%.

With `O=S(=O)(c1cccc2ccccc12)n1cc(C2=CCN3CCCC3C2)c2cnccc21` (stereo not shown) [3-(1,2,3,5,8,8a-Hexahydro-7-indolizinyl)-1-(1-naphthalenesulfonyl)-5-azaindole], the inhibition at 0.1 µM is > 95%. The same measure, in the same setting: to `O=S(=O)(c1ccc2ccccc2c1)n1cc(C2=CCN3CCCC3C2)c2cccnc21` (stereo not shown) [3-(1,2,3,5,8,8a-Hexahydro-7-indolizinyl)-1-(2-naphthalenesulfonyl)-7-azaindole] belongs > 90%. As for `Cc1ccc(S(=O)(=O)n2cc(C3=CCN4CCCC4C3)c3cnccc32)cc1` (stereo not shown) [3-(1,2,3,5,8,8a-Hexahydro-7-indolizinyl)-1-(4-methylbenzenesulfonyl)-5-azaindole], the inhibition at 0.1 µM was > 80%.

On to `O=S(=O)(c1ccccc1)n1cc(C2=CCN3CCCC3C2)c2cnccc21` (stereo not shown) [3-(1,2,3,5,8,8a-Hexahydro-7-indolizinyl)-1-benzenesulfonyl-5-azaindole], for which the inhibition at 0.1 µM is > 90%.

For `O=S(=O)(c1cccc2ccccc12)n1cc(C2CCN3CCCC3C2)c2ncccc21` (stereo not shown) [3-(Octahydro-7-indolizinyl)-1-(1-naphthalenesulfonyl)-4-azaindole], the inhibition at 0.1 µM is > 80%. Same read-out and setting: to `O=S(=O)(c1ccc2ccccc2c1)n1cc(C2CCN3CCCC3C2)c2ncccc21` (stereo not shown) [3-(Octahydro-7-indolizinyl)-1-(2-naphthalenesulfonyl)-4-azaindole] belongs > 95%.

Another experiment deals with T1, 5-HT6 receptor. As to the kind of experiment: Functional assay: serotonin-induced adenyl cyclase activity (cAMP) in HEK 293 cells. In kind it is cell-based. As to conditions: HEK 293 cells stably expressing human 5HT6 receptor; test compound (100 nM and 10 μM) along with serotonin; cAMP by EIA. The method, then: The 5HT6 receptor responds to serotonin and other agonists by increasing adenyl cyclase mediated production of cyclic AMP. Particular test compounds were assayed for their effect on adenyl cyclase activity using the procedure described below.
Compounds acting as antagonists at the 5HT6 receptor will antagonize the agonist effect of serotonin and thus, will block the serotonin-induced increase in adenyl cyclase activity.
HEK 293 cells stably expressing the human 5HT6 receptor were plated in 6 well plates in DMEM (Dulbecco's Modified Eagle Medium)/F12 (Nutrient Mixture F12—Ham) media with 10% FCS (fetal calf serum) and G418 (Geneticen Disulfate, 500 ug/ml), and incubated at 37° C. in a CO2 incubator. The cells were allowed to grow to about 70% confluence before use in the assay.
The culture medium of each well was removed, and the wells were washed once with serum free media. Then 2 ml of SFM+IBMX medium (SFM with 0.5 mM IBMX, 3-isobutyl-1-methylxanthine, 0.1% ascorbic acid and 10 mM pargyline) was added to each well and the wells were incubated at 37° C. for 10 min. Following incubation, the SFM+IBMX medium was removed from each well and fresh SFM+IBMX media was added to the wells separately with one of a) serotonin (1 μM final concentration); b) test compound (100 nM and 10 μM, to test for agonist activity); and c) test compound (100 nM and 10 μM) along with serotonin ([…], to test for antagonist activity). Basal adenyl cyclase activity was determined from wells with only SFM+IBMX media added.
The cells were then incubated at 37° C. for 30 minutes in a CO2 incubator. […] The pellets were discarded and the supernatants were stored at 4° C. until assayed for cAMP concentration. cAMP content for each extract was determined in duplicate by EIA (enzyme-immunoassay) using the Amersham Biotrak cAMP EIA kit (Amersham RPN 225). Final results were expressed as %basal response for agonists and % reversal of serotonin response for antagonists.
The total stimulation of adenyl cyclase by serotonin (So) was determined as the difference in concentration of cAMP in the serotonin-treated cells (Cd) and the basal-treated cells (Cf).
The net stimulation (S) of basal adenyl cyclase by an agonist test compound was determined as the difference in cAMP concentration in the drug-treated cell (C) and the basal-treated cells (Cf).
The net stimulation (Ss) of basal adenyl cyclase by serotonin in the presence of an antagonist test compound was determined as the difference in cAMP concentration in the serontonin-drug-treated cells (Cs) and the basal-treated cells (Cf).
The ability of the antagonist test compound to reverse the serotonin stimuation of adenyl cyclase activity (% reversal, %R) was determined by the formula: […]
As to `O=S(=O)(c1cccc2ccccc12)n1cc(C2=CCN3CCCC3C2)c2cnccc21` (stereo not shown) [3-(1,2,3,5,8,8a-Hexahydro-7-indolizinyl)-1-(1-naphthalenesulfonyl)-5-azaindole], the “reversal of serotonin stimulation of adenyl cyclase (5-HT6 receptor antagonist behaviour)” value (“reversal” below) is recorded as “able to reverse the serotonin stimulation of adenyl cyclase”.

Regarding `O=S(=O)(c1cccc2ccccc12)n1cc(C2=CCN3CCCC3C2)c2cccnc21` (stereo not shown) [3-(1,2,3,5,8,8a-Hexahydro-7-indolizinyl)-1-(1-naphthalenesulfonyl)-7-azaindole], the “reversal” value was “able to reverse the serotonin stimulation of adenyl cyclase”. Same read-out and setting: the entry for `O=S(=O)(c1ccccc1)n1cc(C2=CCN3CCCC3C2)c2cnccc21` (stereo not shown) [3-(1,2,3,5,8,8a-Hexahydro-7-indolizinyl)-1-benzenesulfonyl-5-azaindole] is “able to reverse the serotonin stimulation of adenyl cyclase”.

Consider `O=S(=O)(c1ccccc1)n1cc(C2=CCN3CCCC3C2)c2cccnc21` (stereo not shown) [3-(1,2,3,5,8,8a-Hexahydro-7-indolizinyl)-1-benzenesulfonyl-7-azaindole], for which the “reversal” value is on record as “able to reverse the serotonin stimulation of adenyl cyclase”.

The values above are taken from patent publication US20010049441A1, “Azaindoles having serotonin receptor affnity” (Allelix Biopharmaceuticals, Inc., priority 1999, published 2001).
